Here are results for three molecules from US20210002231A1 (Centre National de la Recherche Scientifique, priority 2018, published 2021).

Experiment [1] has as its target T1, NPFF2R (Homo sapiens, UniProt Q9Y5X5). The experiment can be described thus: Radioligand competition binding with [125I]-1-DMe-NPFF. Further details: expressed in transfected cells; HEK293-Glo20F cells (cAMP). For orientation: Loss of bound radioactivity is the signal in a displacement assay; it reports binding, not function.
The target of experiment [2] is human NPFF1R (Homo sapiens, UniProt Q9GZQ6). The experiment is described as above. Further details: expressed in transfected cells; HEK293-Glo20F cells (cAMP).
Sequence of human NPFF1R (Q9GZQ6 whole entry): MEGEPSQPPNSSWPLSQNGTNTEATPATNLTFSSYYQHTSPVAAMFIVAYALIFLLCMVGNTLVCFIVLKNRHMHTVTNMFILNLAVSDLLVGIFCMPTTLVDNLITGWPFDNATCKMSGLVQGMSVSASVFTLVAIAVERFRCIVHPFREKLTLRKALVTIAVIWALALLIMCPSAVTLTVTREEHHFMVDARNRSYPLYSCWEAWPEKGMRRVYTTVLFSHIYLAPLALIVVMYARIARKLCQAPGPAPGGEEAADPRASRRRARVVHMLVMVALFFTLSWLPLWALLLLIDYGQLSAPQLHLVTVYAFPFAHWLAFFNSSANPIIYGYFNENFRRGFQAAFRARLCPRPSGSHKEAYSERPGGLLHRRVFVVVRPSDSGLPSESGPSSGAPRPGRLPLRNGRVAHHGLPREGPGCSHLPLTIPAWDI
Experiment [3] has as its target T2, human MOPr (Homo sapiens, UniProt P35372). Put plainly: cell-based. Conditions: for EC50: Table 3B, read-out: MOPr (cAMP) EC50; for Emax: read-out: MOPr (cAMP) Emax. The format is cell-based. Set-up: expressed in transfected cells; HEK293-Glo20F cells (cAMP). The method in brief: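 GTPγS binding used membranes of CHO cells expressing NPFF1R or NPFF2R, stimulated by RF-amide peptides or test compounds. cAMP was measured in HEK293 cells stably carrying Glosensor-20F, with or without stable expression of an opioid receptor or NPFF1R, in the presence of 1 mM D-luciferin.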

Experiment [4] deals with T2, human MOPr. Put plainly: BRET1 β-arrestin-2 recruitment assay.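 On MOPr (β-arrestin-2) Emax: Emax relative to maximal DAMGO-induced BRET as 100%.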 The format is cell-based. Set-up: expressed in transfected cells; host or cells: HEK293 cells stably expressing eYFP-β-arrestin-2, transiently transfected with the Rluc8-MOP plasmid. The conditions noted are these: for EC50: Table 3B, — = non-detectable recruitment, read-out: MOPr (β-arrestin-2) EC50; for Emax: read-out: MOPr (β-arrestin-2) Emax. As to the method:
Peak response amplitudes were normalized to basal and maximal (cells permeabilized with 20 μM digitonin) fluorescence levels. 1.8. β-Arrestin-2 recruitment assay The β-arrestin-2 recruitment assay was performed as described [34; 45] with minor modifications. Briefly, two days prior the experiment, HEK293 cells stably expressing eYFP-tagged β-arrestin-2 were transfected with the plasmid encoding Rluc8-MOP receptor. β-Arrestin-2 recruitment was measured at 37° C. in presence of 5 μM Coelenterazine H, 5 min after agonist addition.
For orientation: Bioluminescence resonance energy transfer reports proximity on the nanometre scale.

The target of experiment [5] is T1, NPFF2R. The experiment can be described thus: Glo-sensor cAMP assay, agonist and antagonist mode. The format is cell-based. Set-up: expressed in transfected cells; HEK293-Glo20F cells (cAMP). The conditions noted are these: evaluated at 0.5 and 5 μM. (Cyclic AMP is a second messenger, typically raised through Gs and lowered through Gi signalling.)

Starred links: 1 amine or outer side, 2 acyl side, 3 side chain; linkers in the order of their positions; H or OH if unused. Non-standard residues stand in square brackets, D forms with d. Residues, ends and D or L forms follow the SMILES beside them. Nva(5-(4-Bn-piperidin-1-yl)) = N[C@@H](CCCN1CCC(Cc2ccccc2)CC1)C(=O)O; X1 = O=C1[C@@H](N[*:1])Cc2ccccc2CN1CCC(=O)[*:2]; Dmt = Cc1cc(O)cc(C)c1C[C@H](N)C(=O)O
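Wherever MOPr (cAMP) Emax is given: Emax relative to DAMGO as 100%.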

T2 sequence (P35372 whole entry): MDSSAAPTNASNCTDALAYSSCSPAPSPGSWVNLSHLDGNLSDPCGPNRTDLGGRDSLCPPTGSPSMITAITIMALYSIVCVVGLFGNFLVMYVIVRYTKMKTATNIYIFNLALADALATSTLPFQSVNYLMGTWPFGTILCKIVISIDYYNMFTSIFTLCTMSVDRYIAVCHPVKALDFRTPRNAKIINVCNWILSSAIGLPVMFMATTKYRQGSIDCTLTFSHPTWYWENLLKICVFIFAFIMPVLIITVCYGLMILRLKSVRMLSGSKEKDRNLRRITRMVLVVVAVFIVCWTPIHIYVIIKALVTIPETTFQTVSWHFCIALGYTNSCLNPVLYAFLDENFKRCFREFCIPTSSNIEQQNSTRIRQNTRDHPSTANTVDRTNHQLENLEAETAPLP
T1 sequence (Q9Y5X5 whole entry): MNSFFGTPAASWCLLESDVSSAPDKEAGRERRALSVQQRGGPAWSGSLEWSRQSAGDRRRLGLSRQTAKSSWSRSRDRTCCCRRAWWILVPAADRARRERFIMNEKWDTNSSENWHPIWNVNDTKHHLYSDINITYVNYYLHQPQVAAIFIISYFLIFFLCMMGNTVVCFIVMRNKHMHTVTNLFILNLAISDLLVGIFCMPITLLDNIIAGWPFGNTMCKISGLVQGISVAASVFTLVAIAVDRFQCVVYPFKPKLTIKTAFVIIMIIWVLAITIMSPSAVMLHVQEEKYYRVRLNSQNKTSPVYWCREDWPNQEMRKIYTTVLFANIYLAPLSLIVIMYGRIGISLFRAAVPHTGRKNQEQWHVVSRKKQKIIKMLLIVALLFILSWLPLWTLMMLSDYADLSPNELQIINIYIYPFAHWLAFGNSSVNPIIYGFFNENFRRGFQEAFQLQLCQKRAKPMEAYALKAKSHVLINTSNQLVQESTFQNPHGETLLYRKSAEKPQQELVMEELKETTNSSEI

Regarding `Cc1cc(O)cc(C)c1C[C@H](N)C(=O)N[C@H](CCCNC(=N)N)C(=O)N[C@H]1Cc2ccccc2CN(CCC(=O)N[C@@H](CCCN2CCC(Cc3ccccc3)CC2)C(=O)N[C@H](C(N)=O)C(C)C)C1=O` [DP0001, H-Dmt-D-Arg-Aba-β-Ala-Bpa-Val-NH2] (H-[Dmt][dR][X1][Nva(5-(4-Bn-piperidin-1-yl))]V-NH2), the values for the IC50 in experiment [1] and in experiment [2] were < 50 nM and ~500 nM, respectively. The results for the EC50 in experiment [3] and in experiment [4] were 16.9 ± 8.3 nM and 101 nM, respectively. The maximum response (Emax) (usually the greatest response seen or fitted, relative to the assay's reference) in experiment [3] turned out to be 124%; in experiment [4], 52%. Besides, the “NPFF2R (cAMP) Agonist mode” value in experiment [5] is “Partial”.
In the case of `CC[C@H](C)[C@H](NC(=O)[C@H](CCCN1CCC(Cc2ccccc2)CC1)NC(=O)CCN1Cc2ccccc2C[C@H](NC(=O)[C@@H](CCCNC(=N)N)NC(=O)[C@@H](N)Cc2c(C)cc(O)cc2C)C1=O)C(N)=O` [DP0002, H-Dmt-D-Arg-Aba-β-Ala-Bpa-Ile-NH2] (H-[Dmt][dR][X1][Nva(5-(4-Bn-piperidin-1-yl))]I-NH2), the IC50 (in general, the midpoint of a concentration-inhibition curve) in experiment [1] is < 50 nM; in experiment [2] it was 50 to 500 nM. The EC50 – broadly, the midpoint of the concentration-response curve – came to 8.9 ± 2.6 nM in experiment [3] and 45 nM in experiment [4]. Further, the Emax was found to be 110% in experiment [3] and 49% in experiment [4]. Also, the “NPFF2R (cAMP) Agonist mode” value in experiment [5] is “Partial”.
For the molecule `Cc1cc(O)cc(C)c1C[C@H](N)C(=O)N[C@H](CCCNC(=N)N)C(=O)N[C@H]1Cc2ccccc2CN(CCC(=O)N[C@@H](CCCN2CCC(Cc3ccccc3)CC2)C(=O)N[C@@H](CC(C)C)C(N)=O)C1=O` [DP0003, H-Dmt-D-Arg-Aba-β-Ala-Bpa-Leu-NH2] (H-[Dmt][dR][X1][Nva(5-(4-Bn-piperidin-1-yl))]L-NH2), the IC50 in experiment [1] is < 50 nM; in experiment [2] it was 50 to 500 nM. Also, the concentration giving a half-maximal response (EC50) in experiment [3] came to 20.1 ± 10 nM; in experiment [4], 37 nM. Also, the Emax in experiment [3] was 70%; in experiment [4] it was 38%. In experiment [5], the “NPFF2R (cAMP) Agonist mode” value was “Partial”.
